Assay [1] concerns AsPC-1 human pancreatic adenocarcinoma. Description: CellTiter-Glo cancer cell line proliferation assay, AsPC-1. Conditions: Homo sapiens, ASPC1, 24 hr. It counts as cell-based. As to the method:
(§1) Cell lines were cultured according to ATCC and recommendations.
(§2) CellTiter-Glo® Reagent Cancer Cell Line Proliferation Assays
(§3) Cells were plated in 96-well tissue culture plates at 4,000 cells/well and incubated at 37° C./5% CO2 for 24 hr in 100 μl of media. […] Cells were then treated with test compounds at various concentrations with a final concentration of 0.5% DMSO/well, and then incubated at 37° C./5% CO2 for 24 hr. 100 μl of CellTiter-Glo® Reagent (Promega Corporation, Madison, WI) was added to each well and processed according manufacturer's protocol. Results were analyzed and IC50-values were calculated in GraphPad 7 software.

The subject of assay [2] is A-427 human lung carcinoma. Description: CellTiter-Glo cancer cell line proliferation assay, A-427. It counts as cell-based. Conditions: Homo sapiens, A-427, 24 hr, read-out: A427 at 24 hrs, IC50. The method, then:
as §1, §2, §3

The next assay concerns the target T1, KRAS(G12D)/SOS1 (Homo sapiens, UniProt P01116, G12D).
T1 construct: purchased Cisbio 63ADK000CB16PEG
Description: KRAS(G12D)/SOS1 homogeneous time-resolved fluorescence (HTRF) assay. It counts as binding. Conditions: absence of GTP, 4° C. for 3 hr. The method, then:
The test compound was mixed and incubated with reaction components, incubated in a sealed plate at 4° C. for 3 hr and fluorescence was measured using a PerkinElmer Envision plate reader.

T1 sequence (P01116 1-188 isoform P01116-2 G12D): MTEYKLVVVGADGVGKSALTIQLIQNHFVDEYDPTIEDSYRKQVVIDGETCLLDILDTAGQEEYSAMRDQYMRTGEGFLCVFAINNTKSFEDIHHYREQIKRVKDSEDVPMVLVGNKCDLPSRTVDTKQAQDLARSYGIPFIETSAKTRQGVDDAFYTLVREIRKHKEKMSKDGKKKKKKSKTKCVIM

For `C#Cc1cccc2cccc(-c3ncc4c(N5CC6CCC(C5)N6)nc(OCC5(CN6CCN(CC7CCN(c8ccc9c(c8)C(=O)N(C8CCC(=O)NC8=O)C9=O)CC7)CC6)CC5)nc4c3F)c12` (centres unmarked) [Compound 48], the IC50 was greater than 1000 nM in assay [1], greater than 1000 nM in assay [2] and less than 100 nM on KRAS(G12D)/SOS1. In turn, `C#Cc1c(F)ccc2cc(O)cc(-c3nc(OC)c4c(N5CC6CCC(C5)N6)nc(OCC5(CN6CCN(C7CCN(c8ccc9c(c8)C(=O)N(C8CCC(=O)NC8=O)C9=O)CC7)CC6)CC5)nc4c3F)c12` (centres unmarked) [Compound 115] showed an IC50 on KRAS(G12D)/SOS1 of less than 100 nM. For `C#Cc1cccc2cccc(-c3ncc4c(N5CC6CCC(C5)N6)nc(OC[C@H]5CC[C@@H](CN6CCN(CC7CCN(c8cc9c(cc8F)C(=O)N(C8CCC(=O)NC8=O)C9=O)CC7)CC6)N5C)nc4c3F)c12` (some centres unmarked) [Compound 55], the results for the IC50 (in assay [2]; against KRAS(G12D)/SOS1) were greater than 1000 nM and less than 100 nM, respectively.

Consider `CN(CC1CCN(c2ccc3c(c2)C(=O)N(C2CCC(=O)NC2=O)C3=O)CC1)CC1(COc2nc(N3CC4CCC(C3)N4)c3cnc(-c4cc(O)cc5ccccc45)c(F)c3n2)CC1` (centres unmarked) [Compound 75], for which the IC50 in assay [2] is greater than 1000 nM; against KRAS(G12D)/SOS1 it was less than 100 nM. Take `CN1[C@@H](COc2nc(N3CC4CCC(C3)N4)c3cnc(-c4cc(O)cc5ccccc45)c(F)c3n2)CC[C@H]1CN1CCN(CC2CCN(c3ccc4c(c3)C(=O)N(C3CCC(=O)NC3=O)C4=O)CC2)CC1` (some centres unmarked) [Compound 60]: the results for the IC50 (in assay [2]; against KRAS(G12D)/SOS1) were greater than 1000 nM and less than 100 nM, respectively. For the compound `O=C1CCC(N2Cc3cc(N4CCC(CN5CCN(CC6(COc7nc(N8CC9CCC(C8)N9)c8cnc(-c9cc(O)cc%10ccccc9%10)c(F)c8n7)CC6)CC5)CC4)ccc3C2=O)C(=O)N1` (centres unmarked) [Compound 52], the results for the 50% inhibitory concentration (IC50) (in assay [2]; on KRAS(G12D)/SOS1) were 100 to 1000 nM and less than 100 nM, respectively. Turning to `C#Cc1cccc2cc(O)cc(-c3ncc4c(N5CC6CCC(C5)N6)nc(OCC5(CN6CCN(C(=O)N7CCN(c8ccc9c(c8)CN(C8CCC(=O)NC8=O)C9=O)CC7)CC6)CC5)nc4c3F)c12` (centres unmarked) [Compound 88], the half-inhibitory concentration (IC50) in assay [1] was 100 to 1000 nM; in assay [2] it was greater than 1000 nM. `CN1CC(N2CCC(C(=O)NCCOCCOc3ccc4c(c3)C(=O)N(C3CCC(=O)NC3=O)C4=O)CC2)C[C@@H]1COc1nc(N2CC3CCC(C2)N3)c2cnc(-c3cc(O)cc4ccccc34)c(F)c2n1` (some centres unmarked) [Compound 54]: the IC50 in assay [2] is greater than 1000 nM; against KRAS(G12D)/SOS1 it was less than 100 nM.

Take `C#Cc1cccc2cc(O)cc(-c3ncc4c(N5CC6CCC(C5)N6)nc(OC[C@H]5CC[C@@H](CN6CCN(CC7CCN(c8ccc9c(c8)CN(C8CCC(=O)NC8=O)C9=O)CC7)CC6)N5C)nc4c3F)c12` (some centres unmarked) [Compound 69]: the figures for the IC50 (in assay [2]; on KRAS(G12D)/SOS1) were greater than 1000 nM and less than 100 nM, respectively. Take `CN1C[C@H](C2CCC(C(=O)NCCOc3ccc4c(c3)C(=O)N(C3CCC(=O)NC3=O)C4=O)CC2)C[C@@H]1COc1nc(N2CC3CCC(C2)N3)c2cnc(-c3cc(O)cc4ccccc34)c(F)c2n1` (some centres unmarked) [Compound 53]: the concentration for half-maximal inhibition (IC50) was greater than 1000 nM in assay [2] and less than 100 nM on KRAS(G12D)/SOS1. With `COc1cc(-c2ncc3c(N4CC5CCC(C4)N5)nc(OCC4(CN5CCN(CC6CCN(c7ccc8c(c7)CN(C7CCC(=O)NC7=O)C8=O)CC6)CC5)CC4)nc3c2F)c2ccccc2c1` (centres unmarked) [Compound 70], the IC50 (in assay [2]; on KRAS(G12D)/SOS1) was greater than 1000 nM throughout. Regarding `C#Cc1cccc2cc(O)cc(-c3ncc4c(N5CC6CCC(C5)N6)nc(OCC5(CN6CCN(CC7CCN(CC(=O)N[C@@H](C(=O)N8C[C@@H](O)C[C@@H]8C(=O)NCc8ccc(-c9scnc9C)cc8)C(C)(C)C)CC7)CC6)CC5)nc4c3F)c12` [Compound 82], the IC50 in assay [1] and in assay [2] was greater than 1000 nM each time. As to `C#Cc1cccc2cccc(-c3ncc4c(N5CC6CCC(C5)N6)nc(OC[C@H]5C[C@@H](N6CCN(CCC7CCN(c8ccc9c(c8)C(=O)N(C8CCC(=O)NC8=O)C9=O)CC7)CC6)CN5C)nc4c3F)c12` (some centres unmarked) [Compound 74], the values for the IC50 (in assay [2]; at KRAS(G12D)/SOS1) were greater than 1000 nM and less than 100 nM, respectively.

With `C#Cc1cccc2cc(O)cc(-c3nc(OC)c4c(N5CC6CCC(C5)N6C)nc(OCC5(CN6CCN(CC7CCN(c8ccc9c(c8)CN(C8CCC(=O)NC8=O)C9=O)CC7)CC6)CC5)nc4c3F)c12` (centres unmarked) [Compound 105], the IC50 in assay [1] is greater than 1000 nM; against KRAS(G12D)/SOS1, less than 100 nM. As for `C#Cc1c(F)ccc2cc(O)cc(-c3ncc4c(N5CC6CCC(C5)N6)nc(OCC5(CN6CC7(C6)CN(c6ccc8c(c6)CN(C6CCC(=O)NC6=O)C8=O)C7)CC5)nc4c3F)c12` (centres unmarked) [Compound 117], the IC50 against KRAS(G12D)/SOS1 was less than 100 nM. As for `C#Cc1cccc2cc(O)cc(-c3ncc4c(N5CC6CCC(C5)N6)nc(OCC5(CN6CCN(Cc7ccc8c(c7)C(=O)N(C7CCC(=O)NC7=O)C8=O)CC6)CC5)nc4c3F)c12` (centres unmarked) [Compound 65], the IC50 was greater than 1000 nM in assay [2] and less than 100 nM at KRAS(G12D)/SOS1.

In the case of `C#Cc1c(F)ccc2cc(O)cc(-c3ncc4c(N5CC6CCC(C5)N6)nc(OCC5(CN6CCC(CN7CCC(c8ccc(NC9CCC(=O)NC9=O)cc8)CC7)CC6)CC5)nc4c3F)c12` (centres unmarked) [Compound 113], the IC50 on KRAS(G12D)/SOS1 is less than 100 nM.

For `CN1C[C@H](N2CCC(C(=O)Nc3ccc4c(c3)CN(C3CCC(=O)NC3=O)C4=O)CC2)C[C@@H]1COc1nc(N2CC3CCC(C2)N3)c2cnc(-c3cccc4cccc(Cl)c34)c(F)c2n1` (some centres unmarked) [Compound 49], the IC50 on KRAS(G12D)/SOS1 was in the range of 100 to 1000 nM. In the case of `C#Cc1cccc2cc(O)cc(-c3ncc4c(N5CC6CCC(C5)N6)nc(OC[C@H]5CC[C@@H](CN6CCN(CC7CCN(c8ccc9c(c8)C(=O)N(C8CCC(=O)NC8=O)C9=O)CC7)CC6)N5C)nc4c3F)c12` (some centres unmarked) [Compound 68], the IC50 in assay [2] is greater than 1000 nM; against KRAS(G12D)/SOS1, less than 100 nM. In the case of `Cc1cccc(-c2ncc3c(N4CC5CCC(C4)N5)nc(OCC4(CN5CCN(CC6CCN(c7ccc8c(c7)C(=O)N(C7CCC(=O)NC7=O)C8=O)CC6)CC5)CC4)nc3c2F)c1C` (centres unmarked) [Compound 63], the values for the IC50 (in assay [2]; against KRAS(G12D)/SOS1) were greater than 1000 nM and less than 100 nM, respectively.

For the compound `C#Cc1cccc2cc(O)cc(-c3ncc4c(N5CC6CCC(C5)N6)nc(OCC5(CN6CCN(CC7CCN(c8cc9c(cc8F)C(=O)N(C8CCC(=O)NC8=O)C9)CC7)CC6)CC5)nc4c3F)c12` (centres unmarked) [Compound 90], the IC50 in assay [1] and in assay [2] was less than 100 nM in each case.

For the compound `C#Cc1c(F)ccc2cc(O)cc(-c3ncc4c(N5CC6CCC(C5)N6)nc(OCC5(CN6CCC7(CC6)CN(c6ccc8c(c6)CN(C6CCC(=O)NC6=O)C8=O)C7)CC5)nc4c3F)c12` (centres unmarked) [Compound 116], the half-maximal inhibitory concentration (IC50) against KRAS(G12D)/SOS1 is less than 100 nM. `C#Cc1c(F)ccc2cc(O)cc(-c3ncc4c(N5CCN(C(=O)C=C)[C@@H](CC#N)C5)nc(OCC5(CN6CCN(CC7CCN(c8ccc9c(c8)CN(C8CCC(=O)NC8=O)C9=O)CC7)CC6)CC5)nc4c3F)c12` (some centres unmarked) [Compound 109] yielded an IC50 at KRAS(G12D)/SOS1 of less than 100 nM. `C#Cc1c(F)ccc2cc(O)cc(-c3ncc4c(N5CC6CCC(C5)N6C(=O)CC#N)nc(OCC5(CN6CCN(CC7CCN(c8ccc9c(c8)CN(C8CCC(=O)NC8=O)C9=O)CC7)CC6)CC5)nc4c3F)c12` (centres unmarked) [Compound 110] showed an IC50 at KRAS(G12D)/SOS1 of less than 100 nM. `C#Cc1c(F)ccc2cc(O)cc(-c3ncc4c(N5CC6CCC(C5)N6)nc(OCC5(CN6CCN(Cc7ccc8c(c7)C(=O)N(C7CCC(=O)NC7=O)C8=O)CC6)CC5)nc4c3F)c12` (centres unmarked) [Compound 64]: the IC50 was greater than 1000 nM in assay [2] and less than 100 nM at KRAS(G12D)/SOS1. On KRAS(G12D)/SOS1, `C#Cc1c(F)ccc2cc(O)cc(-c3ncc4c(N5CC6CCC(C5)N6)nc(OCC5(CN6CCC7(CC6)CCN(c6ccc8c(c6)CN(C6CCC(=O)NC6=O)C8=O)CC7)CC5)nc4c3F)c12` (centres unmarked) [Compound 114] registered an IC50 of less than 100 nM.

In the case of `Cc1cccc2cccc(-c3ncc4c(N5CC6CCC(C5)N6)nc(OCC5(CN6CCN(CC7CCN(c8ccc9c(c8)C(=O)N(C8CCC(=O)NC8=O)C9=O)CC7)CC6)CC5)nc4c3F)c12` (centres unmarked) [Compound 58], at KRAS(G12D)/SOS1, the 50% inhibitory concentration (IC50) was less than 100 nM. With `C#Cc1c(F)ccc2cc(O)cc(-c3ncc4c(N5CC6CCC(C5)N6C(=O)C(F)(F)F)nc(OCC5(CN6CCN(CC7CCN(c8ccc9c(c8)CN(C8CCC(=O)NC8=O)C9=O)CC7)CC6)CC5)nc4c3F)c12` (centres unmarked) [Compound 108], the IC50 against KRAS(G12D)/SOS1 is less than 100 nM. In the case of `C#Cc1c(F)ccc2cc(O)cc(-c3ncc4c(N5CC6CCC(C5)N6)nc(OCC5(CN(C)CC6CCN(c7ccc8c(c7)C(=O)N(C7CCC(=O)NC7=O)C8)CC6)CC5)nc4c3F)c12` (centres unmarked) [Compound 89], the IC50 in assay [1] and in assay [2] was greater than 1000 nM each time. `O=C1CCC(N2C(=O)c3ccc(N4CCN(C(=O)C5CCN(CC6(COc7nc(N8CC9CCC(C8)N9)c8cnc(-c9cc(O)cc%10ccccc9%10)c(F)c8n7)CC6)CC5)CC4)cc3C2=O)C(=O)N1` (centres unmarked) [Compound 76]: the values for the IC50 (in assay [2]; against KRAS(G12D)/SOS1) were greater than 1000 nM and less than 100 nM, respectively. For the compound `C#Cc1cccc2cccc(-c3ncc4c(N5CC6CCC(C5)N6)nc(OCC5(CN(C)CC6CCN(c7ccc8c(c7)C(=O)N(C7CCC(=O)NC7=O)C8=O)CC6)CC5)nc4c3F)c12` (centres unmarked) [Compound 67], the IC50 in assay [2] is 100 to 1000 nM; against KRAS(G12D)/SOS1 it was less than 100 nM.

Regarding `C#Cc1c(F)ccc2cc(O)cc(-c3nc(OC)c4c(N5CCN(C)[C@@H](CC#N)C5)nc(OCC5(CN6CCN(CC7CCN(c8ccc9c(c8)CN(C8CCC(=O)NC8=O)C9=O)CC7)CC6)CC5)nc4c3F)c12` (some centres unmarked) [Compound 106], the IC50 was greater than 1000 nM in assay [1] and less than 100 nM against KRAS(G12D)/SOS1. Turning to `C#Cc1cccc2cccc(-c3ncc4c(N5CC6CCC(C5)N6)nc(OC[C@H]5CC[C@@H](CN6CCN(CCC7CCN(c8ccc9c(c8)C(=O)N(C8CCC(=O)NC8=O)C9=O)CC7)CC6)N5C)nc4c3F)c12` (some centres unmarked) [Compound 62], the IC50 in assay [2] was 100 to 1000 nM; at KRAS(G12D)/SOS1, less than 100 nM. On to `C#Cc1cccc2cc(O)cc(-c3ncc4c(N5CC6CCC(C5)N6)nc(OCC5(CN6CCN(Cc7ccc8c(c7)CN(C7CCC(=O)NC7=O)C8=O)CC6)CC5)nc4c3F)c12` (centres unmarked) [Compound 61], for which the values for the half-maximal inhibitory concentration (IC50) (in assay [2]; at KRAS(G12D)/SOS1) were 100 to 1000 nM and less than 100 nM, respectively.
